Values joined by “and” are separate entries in the source; they are usually repeats but may differ in a detail not shown here. Identical values can stand only once.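 Five concentrations, 48 hours, 96-well plates. At the GI50, growth is halved. At the TGI there is no net growth.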
How the values were obtained:
Test in all cases: NCI tumour cell line growth inhibition, 48 h
[1] = tested on: KM20L2 colon
[2] = tested on: DMS 114 small cell lung
[3] = tested on: LXFL 529 NSCLC
[4] = tested on: SNB-78 CNS
[5] = tested on: DLD-1 colon
[6] = tested on: M19-MEL melanoma
[7] = tested on: HOP-18 NSCLC
[8] = tested on: P388/ADR leukemia
[9] = tested on: SN12K1 renal
[10] = tested on: P388 leukemia

Row | Compound | TGI [1] | TGI [2] | TGI [3] | TGI [4] | TGI [5] | TGI [6] | TGI [7] [µM] | TGI [8] [µM] | TGI [9] [µM] | TGI [10] [µM] | GI50 [1] | GI50 [2]
1 | CCCCCCCCCCCCCCCCNc1cccc2ccccc12 | > 100 µM | > 100 µM | > 100 µM | > 100 µM | > 100 µM | > 100 µM | – | – | – | – | – | –
2 | CCOC(=O)C1S/C(=N\C(=N)N[N+](=O)[O-])N=C1C (configuration not stated) | > 100 µM | > 100 µM | > 100 µM | – | > 100 µM | > 100 µM | > 100 | – | – | – | – | –
3 | O=C1OCC/C1=N/O | > 100 µM | > 100 µM | > 100 µM | > 100 µM | > 100 µM | > 100 µM | > 100 | – | – | – | – | –
4 | CC(O)CNC(=O)C(C)Oc1ccc(OCC2CCCCC2)cc1 (configuration not stated) | – | > 100 µM | > 100 µM | > 100 µM | – | > 100 µM | > 100 | – | – | – | – | –
5 | C[N+](C)([O-])CCOc1cc2c(c3ccccc13)-c1ccccc1C2=O | > 63.5 µM | 24.7 µM | – | > 91.1 µM | > 100 µM | 36.2 µM | > 100 | > 45.2 | 37.8 | > 100 | – | –
6 | CCOC(=O)N1CCC(N[C@@H]2c3cc4c(cc3C(c3cc(OC)c(O)c(OC)c3)C3C(=O)OC[C@@H]32)OCO4)CC1 (some centres not stated) | 14.5 µM and 15.6 µM | 12.4 µM and 4.81 µM | 21.4 µM and > 25 µM | 50 µM and > 25 µM | 30.6 µM and 14.3 µM | 12.8 µM and 10.2 µM | – | – | – | – | 2.16 µM and 4.5 µM | 1900 nM and 747 nM
7 | CCCCCCCCCCCC[S+](C)C | 20.9 µM | 13.4 µM | – | 26.6 µM | 25.9 µM | 6.45 µM | 14.9 | > 100 | 18.8 | 3.1 | – | –
8 | Cc1ccc(/C=N\NC2c3cc(Cl)ccc3Nc3nc(=O)[nH]c(C)c32)cc1 (configuration not stated) | > 100 µM | > 100 µM | > 100 µM | > 100 µM | > 100 µM | > 100 µM | – | – | – | – | – | –
9 | On1c(-c2ccccc2)c(-c2ccccc2N2CCCC2)c2ccccc21 | > 100 µM | > 100 µM | – | > 100 µM | > 100 µM | > 100 µM | > 100 | – | – | – | – | –
10 | COc1cc(OC)c2c(=O)cc(-c3ccc(OC)c(OC)c3OC)oc2c1 | > 100 µM | > 100 µM | > 100 µM | – | > 100 µM | > 100 µM | – | – | – | – | – | –
